Measured values from US20210386733A1, “LYSINE-SPECIFIC HISTONE DEMETHYLASE INHIBITORS FOR THE TREATMENT OF MYELOPROLIFERATIVE NEOPLASMS” (Imago Biosciences, Inc., priority 2019, published 2021).
Where a name gives a salt, the structure may show the parent alone.

Tests used:
[1] = Non-clinical studies of acute toxicity; format: in vivo; conditions: even at extremely high doses (human equivalent dose (HED) ˜20-40 mg/kg)
[2] = test system: patients with myelofibrosis; assay: Phase 2B clinical trial of Compound 1 in myelofibrosis (Example 2); format: in vivo, human
Description: A multi-center, open label, dose-range finding study to assess the safety, optimally effective dosing rules, steady-state pharmacokinetics and pharmacodynamics of Compound 1 orally once daily in patients with myelofibrosis was conducted in a Phase 1/2a study. • Primary objectives were to evaluate, in MF patients the effect of Compound 1 on: Safety and tolerability • Pharmacokinetics (Phase 1/2a only) • Reduction in spleen volume
This study initiated as a Phase 1/2a study assessing the safety of the starting dose, an 85 day duration of treatment, and the pharmacokinetic and pharmacodynamic effects of Compound 1, with transition to a Phase 2b study incorporating changes supported by the earlier pharmacokinetic and pharmacodynamic studies and safety assessments. This study consisted of two treatment periods: the Initial Treatment Period (ITP), followed by the Additional Treatment Period (ATP). Patients commenced enrolment in the Phase 2b portion of the study, in which the ITP has been extended such that patients were treated daily for 169 days. The ATP, also extended, offered treatment to qualifying patients for an additional 169 days.
Initial Treatment Period. During the ITP, patients initially returned for study assessments twice weekly for the first week (ITP Days 0, 3 and 7); post-dosing of 3 patients at the new Ds, the DSMC convened to assess the necessity of the Day 3 visit. Patients returned weekly for the next 7 weeks (ITP Days 14, 21, 28, 35, 42, 49 and 56), at least bi-weekly for 8 weeks (ITP Days 70, 84, 98 and 112) and then monthly for 8 weeks (ITP Days 140 and 168). It was anticipated that by Week 8 (Day 56) patients will have achieved a stable dose, with weekly titrations no longer necessary. For the exceptional patient whose dose had not stabilized, weekly visits continued at the PI's discretion (note: bi-weekly visits may also continue post Day 112). On Days 84 and 168, patients underwent abdominal magnetic resonance imaging (MRI), or computerized tomography (CT) if the patient was not a candidate for MRI. On Day 168, bone marrow sampling was also required. Prior to or at the Day 168 visit, but ideally at the Day 140 visit for logistical purposes, a ‘qualification’ assessment was made to determine whether the patient is deriving clinical benefit (defined as not meeting progressive disease criteria and safely tolerating Compound 1; this definition applies throughout document and will not be repeated with each reference to clinical benefit). Such patients qualified for entry into the ATP, a transition which was anticipated to occur without interruption in dosing. Patients not deriving clinical benefit, or who achieve complete response (CR), partial response (PR) or clinical improvement (CI) and subsequently relapse the equivalent of treatment failures, discontinued Compound 1 and undergo End of Treatment (EoT), pre-End of Study (pre-EoS) and End of Study (EoS) visits.
Initial Treatment Period (ITP). Treatment began on Day 0 at the Ds of 0.5 mg/kg QD for all patients entering the Phase 2b portion of the study. Dose-adjustments could be made at each clinic visit (with the exception of Day 3), with dose-titration, either upward or downward, contingent on the comparison of hematology values from the prior visit, as dictated by the rules below. The Dpi was anticipated to be ≤1.2 mg/kg QD; however, this was not the upper limit for titration purposes as the dose needed to achieve a therapeutic effect will vary among patients and may change over time. The platelet titration target expected to be associated with a clinically significant therapeutic effect was a platelet count of ≥50,000 to ≤75,000/μL (50-75×10^9/L). Titration and re-challenge rules based on evaluation of platelet, absolute neutrophil (ANC) and hemoglobin (Hgb) counts are noted below. […]

[3] = test system: somatic mutations in myeloid neoplasm genes (JAK2, CALR, MPL, ASXL1 etc.); assay: Sequencing of somatic mutations, variant allele frequency (VAF) in treated patients (Example 3); format: in vivo, human
From the text: The following characterize the sequencing protocol: • Samples: Germline (buccal or hair) and “Tumor” (bone marrow, peripheral blood, granulocytes) • Target enrichment: 11,736 hybridization probes in IDT AML panel targeting 261 genes (˜6300 exons) recurrently mutated in myeloid neoplasms • Illumina sequencing: 2×150 bp paired-end sequencing; ˜10 million pairs sequenced per sample • Aiming for sequencing depth >500; Actual: >1000 for >90% of samples • Analysis: Burrows-Wheeler alignment (BWA)=>VARSCAN2 genotyper=>IGV for CALR, etc. • Cutoffs for somatic calls: Sequencing Depth: >20 Mutant (or Variant) Allele Frequency (VAF): >15% • Annotation: All calls submitted to CADD (Combined Annotation Dependent Depletion) at University of Washington • CADD score cutoff >20 identifies the top 1% of the most deleterious mutations

patients with MF = assay: Safety / adverse events in the clinical studies (31 subjects); format: in vivo
From the text: Safety. […] Four SAEs attributed to Compound 1 (all Grade 3), including painful splenomegaly, headache, nausea and vomiting, and heart failure. There were 139 AEs of all grades attributed to Compound 1. The most common AEs across the 31 subjects from both of the above studies were thrombocytopenia (11 subjects, 35%), anemia (3 subjects, 10%) and nausea (1, 3%). The most common grade 3/4 AEs attributed to Compound 1 were Anemia (6 subjects, 19%) and neutropenia (3 subjects, 10%).
Management of Study Toxicities. Adverse event intensity will be evaluated using the National Cancer Institute (NCI) Common Terminology Criteria for Adverse Events (CTCAE) version 4.03, published 14 Jun. 2010.

[4] = Phase 2b patients at Week 12, n=14

SMILES: CN1CCN(C(=O)[C@H](CCCN[C@@H]2C[C@H]2c2ccc(F)cc2)NC(=O)c2ccc(-n3ccnn3)cc2)CC1 [Compound 1, N-[(2S)-5-{[(1R, 2S)-2-(4-fluorophenyl)cyclopropyl]amino}-1-(4-methylpiperazin-1-yl)-1-oxopentan-2-yl]-4-(1H-1,2,3-triazol-1-yl)benzamide, bis-tosylate salt]
- acute toxicity in non-clinical studies [1]: no evidence
- patients with a decrease in spleen volume [2, 4]: 86%
- patients with a spleen volume reduction of ≥20% [2, 4]: 29%
- patients with a spleen volume reduction of ≥35% [2, 4]: 14%
- median change in spleen volume to Wk 12 ([2]; Phase 2b patients, n=14): −15%
- patients with a decrease in symptom score ([2]; all patients at Week 12, n=32): 78%
- patients with a reduction in symptom score of ≥50% ([2]; all patients at Week 12, n=32): 25%
- patients showing a decrease in some or all somatic mutations ([3]; 22 patients): 32%
- patients with increased VAFs ([3]; 22 patients): 14%
- patients with stable VAFs ([3]; 22 patients): 55%
- progression to AML ([3]; human, in vivo): No progression to AML
- new mutations ([3]; patients followed up to 550+ days): No new mutations identified
- subjects with grade 3/4 Anemia attributed to Compound 1 (patients with MF; 31 subjects): 19%
- subjects with grade 3/4 neutropenia attributed to Compound 1 (patients with MF; 31 subjects): 10%
- subjects with anemia (most common AEs) (patients with MF; 31 subjects from both studies): 10%
- subjects with nausea (most common AEs) (patients with MF; 31 subjects from both studies): 3%
- subjects with thrombocytopenia (most common AEs) (patients with MF; 31 subjects from both studies): 35%
- tolerability (patients with MF; MF patients): well tolerated
- SAEs attributed to Compound 1 (patients with MF; all Grade 3: painful splenomegaly, headache, nausea and vomiting, heart failure): Four
- AEs of all grades attributed to Compound 1 (patients with MF; human, in vivo): 139
- deaths or dose-limiting toxicities (patients with MF; throughout the course of the study): no deaths or dose-limiting toxicities
